8 compounds from ChEMBL document CHEMBL5303304, “EUbOPEN Chemogenomics Library - IncuCyte” (2023) can be followed below.

What all share (type): toxicity, cell-based
One series has as its system HEK-293T. Briefly: Incucyte cell viability with HEK293T. Conditions: human, 10 µM, compound concentration 10 uM.
The next series concerns Fibroblast. Description: Incucyte cell viability with human fibroblast. The settings on record: 10 µM, compound concentration 10 uM.
The subject of the next series is U2OS. Briefly: Incucyte cell viability with U2OS. Conditions: human, 10 µM, compound concentration 10 uM.

Where “and” joins values, the source holds several entries; their conditions need not be identical. Equal values may be shown once.
Further: unitless GR value; below 1 slowed growth and below 0 cell loss.

As to `CC[C@H](CC(=O)O)n1c(=O)c2ncccc2n(Cc2cn(C)c3cc(C)cc(C)c23)c1=O` [BI-1942], the “Growth Rate” value with HEK-293T (0 h, replicate number 1) is given as 0.52; with HEK-293T (0 h, replicate number 2) it was -0.53; in the series on HEK-293T (6 h, replicate number 2), 0.45; with HEK-293T (12 h, replicate number 2), 0.58; with HEK-293T (18 h, replicate number 1) it was 0.94; with HEK-293T (18 h, replicate number 2), 0.52. In addition, the “Growth Rate” value with HEK-293T (24 h, replicate number 2) was 0.65; in the series with Fibroblast (0 h, replicate number 2), 0; with Fibroblast (6 h, replicate number 1), 0.14; with Fibroblast (6 h, replicate number 2) it was 0.23 and 0.17; with Fibroblast (12 h, replicate number 1), 0.83 and 0.8; in the series on Fibroblast (12 h, replicate number 2), 0.64 and 0.67. Also, the “Growth Rate” value with Fibroblast (18 h, replicate number 1) is 0.75 and 0.86; in the series with Fibroblast (18 h, replicate number 2) it was 0.58; with Fibroblast (24 h, replicate number 1), 0.7 and 1; in the series on Fibroblast (24 h, replicate number 2), 0.86 and 0.92; in the series with U2OS (0 h, replicate number 1), 0.47 and 0.69; with U2OS (0 h, replicate number 2), 0.8. The “Growth Rate” value in the series with U2OS (6 h, replicate number 1) was 0.25 and 0.31; with U2OS (6 h, replicate number 2) it was 0.74; in the series on U2OS (12 h, replicate number 1), 0.47 and 0.65; in the series on U2OS (12 h, replicate number 2) it was 0.71 and 0.98; with U2OS (18 h, replicate number 1), 0.61 and 0.75; with U2OS (18 h, replicate number 2) it was 0.84. Moreover, the “Growth Rate” value was 0.67 and 0.73 in the series with U2OS (24 h, replicate number 1); 0.61 in the series with U2OS (24 h, replicate number 2).
Consider `Cl.NCC(O)c1ccc(O)cc1` (stereo unspecified) [OCTOPAMINE HYDROCHLORIDE], for which the “Growth Rate” value with HEK-293T (0 h, replicate number 1) was 0.76; with HEK-293T (0 h, replicate number 2), 0.66; in the series with HEK-293T (6 h, replicate number 1), 0.45; in the series with HEK-293T (6 h, replicate number 2), 0.94; in the series on Fibroblast (6 h, replicate number 2) it was -0.67; with Fibroblast (12 h, replicate number 2), 0.8. Also, the “Growth Rate” value was -0.19 in the series on Fibroblast (18 h, replicate number 1); 0.94 in the series with U2OS (0 h, replicate number 1); -0.87 in the series on U2OS (0 h, replicate number 2); 0.64 in the series with U2OS (6 h, replicate number 1); 0.65 with U2OS (6 h, replicate number 2); 0.99 in the series with U2OS (12 h, replicate number 1). For the same compound, the “Growth Rate” value with U2OS (12 h, replicate number 2) is 0.92; in the series on U2OS (18 h, replicate number 1), 0.83; with U2OS (18 h, replicate number 2) it was 0.87; with U2OS (24 h, replicate number 1), 0.97; in the series on U2OS (24 h, replicate number 2), 0.95.
In the case of `CC(C)C[C@H](NC(=O)c1cc2ccccc2s1)C(=O)N1CCN(C(=O)[C@H](CO)NS(=O)(=O)c2ccc(Cl)cc2Cl)CC1`, the “Growth Rate” value is listed as 0.99 in the series on HEK-293T (0 h, replicate number 1); -0.15 in the series on HEK-293T (6 h, replicate number 1); -0.01 with HEK-293T (6 h, replicate number 2); 0.69 in the series with HEK-293T (12 h, replicate number 1); 0.27 in the series on HEK-293T (12 h, replicate number 2); 0.71 in the series on HEK-293T (18 h, replicate number 1). Further, the “Growth Rate” value is given as 0.38 with HEK-293T (18 h, replicate number 2); 0.78 with HEK-293T (24 h, replicate number 1); 0.46 in the series on HEK-293T (24 h, replicate number 2); -0.86 in the series with Fibroblast (6 h, replicate number 2); -0.95 with Fibroblast (12 h, replicate number 1); 0.01 in the series on Fibroblast (12 h, replicate number 2). Further, the “Growth Rate” value is -0.18 in the series on Fibroblast (18 h, replicate number 1); 0.68 with Fibroblast (18 h, replicate number 2); 0 with Fibroblast (24 h, replicate number 1); 0.65 in the series with Fibroblast (24 h, replicate number 2); -1 with U2OS (0 h, replicate number 2); 0.27 in the series on U2OS (6 h, replicate number 1). Moreover, the “Growth Rate” value in the series with U2OS (6 h, replicate number 2) is recorded as 0.36; with U2OS (12 h, replicate number 1) it was 0.93; with U2OS (12 h, replicate number 2), 0.51; in the series on U2OS (18 h, replicate number 1) it was 0.95; in the series with U2OS (18 h, replicate number 2), 0.58; in the series on U2OS (24 h, replicate number 2), 0.66.
For `CC(=O)c1c(C)c2cnc(Nc3ccc(N4CCN(CCOCCOCCOCCNC(=O)COc5cccc6c5C(=O)N(C5CCC(=O)NC5=O)C6=O)CC4)cn3)nc2n(C2CCCC2)c1=O` (stereo unspecified), the “Growth Rate” value was 0.95 with HEK-293T (0 h, replicate number 1); 0.18 in the series with Fibroblast (0 h, replicate number 2); 0.92 with Fibroblast (12 h, replicate number 2); 0.89 with Fibroblast (24 h, replicate number 2); 0.99 in the series with U2OS (12 h, replicate number 1); 0.93 in the series with U2OS (12 h, replicate number 2).
Consider `Nc1ncnc2[nH]c(-c3ccccc3)nc12`, for which the “Growth Rate” value with HEK-293T (6 h, replicate number 1) turned out to be 0.83; in the series with HEK-293T (6 h, replicate number 2) it was 0.23; with HEK-293T (12 h, replicate number 1), 0.87; in the series with HEK-293T (12 h, replicate number 2), 0.55; in the series on HEK-293T (18 h, replicate number 1), 0.8; with HEK-293T (18 h, replicate number 2) it was 0.68. The “Growth Rate” value in the series on HEK-293T (24 h, replicate number 1) came to 0.85; in the series with HEK-293T (24 h, replicate number 2), 0.78; with Fibroblast (0 h, replicate number 2), 0.44; in the series on Fibroblast (6 h, replicate number 2) it was 0.95; in the series on Fibroblast (12 h, replicate number 1), 0.88; in the series on Fibroblast (12 h, replicate number 2), 0.9. Further, the “Growth Rate” value in the series on U2OS (0 h, replicate number 1) is recorded as -1; in the series with U2OS (0 h, replicate number 2), 0.55; in the series on U2OS (6 h, replicate number 2), 0.92; in the series on U2OS (12 h, replicate number 2), 0.9; in the series with U2OS (18 h, replicate number 2) it was 0.95.
Consider `CC(C)N(C(=O)C1CCOCC1)c1cc(F)c(Oc2ncc(Cn3nccn3)cc2C(F)(F)F)cc1C(=O)O`, for which the “Growth Rate” value in the series with HEK-293T (0 h, replicate number 2) is listed as 0.61; with Fibroblast (0 h, replicate number 1), 0.24; with Fibroblast (0 h, replicate number 2), -0.36; with Fibroblast (6 h, replicate number 1) it was 0.7; in the series with Fibroblast (12 h, replicate number 1) it was 0.85; in the series on U2OS (0 h, replicate number 1), 0.83. Besides, the “Growth Rate” value with U2OS (6 h, replicate number 1) worked out at 0.91; in the series with U2OS (18 h, replicate number 2), 0.98; with U2OS (24 h, replicate number 2), 0.93.
In the case of `COc1cccc(-c2c(C)c(Cc3c(F)cccc3C(F)(F)F)c3n(c2=O)[C@@H]([C@@H](N)c2ccccc2)CS3)c1F`, the “Growth Rate” value is on record as -0.28 in the series with HEK-293T (0 h, replicate number 2); 0.52 in the series on HEK-293T (12 h, replicate number 2); 0.72 with HEK-293T (18 h, replicate number 1); 0.5 in the series on HEK-293T (18 h, replicate number 2); 0.6 with HEK-293T (24 h, replicate number 1); 0.46 with HEK-293T (24 h, replicate number 2). Also, the “Growth Rate” value was -1 in the series on Fibroblast (0 h, replicate number 1); 0.51 in the series with Fibroblast (6 h, replicate number 1); -0.66 in the series on Fibroblast (6 h, replicate number 2); 0.73 in the series with Fibroblast (12 h, replicate number 2); 0.92 in the series on Fibroblast (18 h, replicate number 1); 0.83 with Fibroblast (24 h, replicate number 1). In addition, the “Growth Rate” value is on record as 0.87 in the series with Fibroblast (24 h, replicate number 2); 0.81 with U2OS (0 h, replicate number 1); -0.8 in the series on U2OS (0 h, replicate number 2); 0.48 with U2OS (6 h, replicate number 1); 0.4 with U2OS (6 h, replicate number 2); 0.52 with U2OS (12 h, replicate number 1). Moreover, the “Growth Rate” value was 0.75 in the series with U2OS (12 h, replicate number 2); 0.62 in the series on U2OS (18 h, replicate number 1); 0.91 in the series on U2OS (18 h, replicate number 2); 0.37 in the series on U2OS (24 h, replicate number 1); 0.93 with U2OS (24 h, replicate number 2).
With `Nc1ccc(-c2cnc(N)c(-c3ccc(Cl)cc3)c2)cn1`, the “Growth Rate” value in the series on HEK-293T (0 h, replicate number 1) is -0.26; with HEK-293T (0 h, replicate number 2) it was -0.3; in the series with HEK-293T (18 h, replicate number 2), 0.92; in the series with HEK-293T (24 h, replicate number 2) it was 0.78; in the series on Fibroblast (0 h, replicate number 1), 0.71; with Fibroblast (0 h, replicate number 2) it was -0.5. Moreover, the “Growth Rate” value with Fibroblast (6 h, replicate number 1) was -1; in the series on U2OS (0 h, replicate number 1), -0.24; in the series on U2OS (0 h, replicate number 2), -0.83.
